Where two headings read alike, the source gives them in different places.
Columns and labels:
[1] = target: T1, SUMO-activating enzyme (SAE) (Homo sapiens, UniProt Q9UBT2); assay: Target engagement: SUMO–subasumstat adduct formation in blood lymphocytes, skin and tumor (flow cytometry, IHC); type: in vivo
T1 construct: from tissue; host or cells: patients' peripheral blood lymphocytes, skin biopsies and tumor biopsies
T1 sequence (Q9UBT2 1-640): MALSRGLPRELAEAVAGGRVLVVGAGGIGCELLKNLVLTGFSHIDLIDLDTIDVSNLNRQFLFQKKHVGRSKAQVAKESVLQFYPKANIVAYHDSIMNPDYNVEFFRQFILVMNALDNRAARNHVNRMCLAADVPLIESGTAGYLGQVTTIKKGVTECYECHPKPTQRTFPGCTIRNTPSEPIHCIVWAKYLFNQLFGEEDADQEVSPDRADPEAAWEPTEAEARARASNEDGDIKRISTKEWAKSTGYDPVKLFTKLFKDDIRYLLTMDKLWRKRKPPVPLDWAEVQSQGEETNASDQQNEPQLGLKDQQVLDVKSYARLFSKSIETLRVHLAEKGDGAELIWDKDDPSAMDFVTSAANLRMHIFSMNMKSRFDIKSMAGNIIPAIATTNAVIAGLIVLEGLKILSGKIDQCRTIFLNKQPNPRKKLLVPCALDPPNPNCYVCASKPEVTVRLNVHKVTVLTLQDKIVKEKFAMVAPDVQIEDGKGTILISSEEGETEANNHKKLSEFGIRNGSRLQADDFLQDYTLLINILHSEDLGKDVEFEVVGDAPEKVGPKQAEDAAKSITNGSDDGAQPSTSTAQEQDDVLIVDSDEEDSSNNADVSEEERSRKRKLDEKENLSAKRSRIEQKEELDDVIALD
T1 sequence (Q9UBE0 1-346 partner): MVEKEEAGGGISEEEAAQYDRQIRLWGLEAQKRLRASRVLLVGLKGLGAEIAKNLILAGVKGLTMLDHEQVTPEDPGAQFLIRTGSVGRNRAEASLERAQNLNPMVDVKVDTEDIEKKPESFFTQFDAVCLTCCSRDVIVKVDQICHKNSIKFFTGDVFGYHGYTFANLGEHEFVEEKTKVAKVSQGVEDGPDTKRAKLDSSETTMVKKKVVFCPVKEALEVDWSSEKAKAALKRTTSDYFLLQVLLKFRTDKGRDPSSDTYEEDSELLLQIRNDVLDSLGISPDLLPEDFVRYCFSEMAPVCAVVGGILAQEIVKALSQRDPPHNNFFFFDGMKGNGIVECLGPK
Protocol: (§1) Blood samples for subasumstat–SUMO adduct formation and SUMO2/3 inhibition assessments were collected before dose and at 1, 4, and 8 hours after the infusion on C1D1 and C1D8. Blood samples for additional biomarker analyses were collected before dose on C1D1 and C1D8 and at 4, 8, and 24 hours after infusion on C1D1 and C1D8. Skin biopsies (used as surrogate tissue for solid tumors) were collected at screening and on C1D8 at 2 hours (±30 minutes) after end of infusion, and tumor biopsies were collected at screening and cycle 2 day 8 (C2D8; +7 days; whenever possible). In blood samples, a custom flow cytometry assay was utilized for detecting target engagement and SUMOylated protein levels in lymphocytes (including T-, B-, and NK-cell subsets). The assay included a PE-conjugated antibody specifically recognizing the SUMO–subasumstat adduct (MIL-113, anti–cysteinyl-TAK-981, Epitomics; refs. [14], [15], [22]) and an AF488-conjugated antibody recognizing SUMO2/3 conjugates (MBL International, cat. #M114-3, RRID: AB_592769). Peripheral blood cells were lysed/fixed, permeabilized (BD Biosciences), and stained with MIL-113 and M114-3 and with antibodies against CD45, CD3, CD19, CD16/CD56, and CD14. IHC assays for SUMO–subasumstat adduct and SUMO2/3 inhibition in skin biopsies and tumors were performed using MIL-113 and M114-3 antibodies. Activation of the IFNI pathway was assessed in peripheral blood by analysis of gene expression data (PanCancer IO 360 panel by NanoString for phase I and whole-transcriptome RNA sequencing data for phase II). Type I IFN gene signature was computed using geometric mean of the following genes: CCL2, CXCL10, DDX58, IRF7, ISG15, STAT1, and STAT2. These seven IFNI-regulated genes were selected prior to the trial, based on in vitro studies of the effect of subasumstat on human blood from 10 healthy donors analyzed on the NanoString PanCancer IO 360 panel. Plasma chemokines and cytokines were measured using the MesoScale Discovery platform (pro-inflammatory and chemokine panels, BioAgilytix). For assessment of NK- and T-cell activation, cells were suspended in buffer and incubated with the following monoclonal antibodies: APC-H7 mouse anti–human CD45 (BD Biosciences, cat. #560274), APC mouse anti–human CD69 (BD Biosciences, cat. #555533), BV421 mouse anti–human CD56 (BD Biosciences, cat. #562751), mouse anti–human CD16 PerCP-Cy5.5 (BD Biosciences, cat. #338440), BV510 mouse anti–human CD4 (BD Biosciences, cat. #563094), BV605 mouse anti–human CD8 (BD Biosciences, cat. #564116), and Alexa Fluor 700 anti–mouse CD3 antibody (BioLegend, cat. #100215), prior to assessment by flow cytometry using the BD Scientific FACSCanto flow cytometer (RRID: SCR_018055). Tumor PD-L1 expression level was assessed in paired tumor biopsies using the 22C3 PD-L1 IHC assay; combined positive score (CPS) was calculated for baseline and on-treatment tumor samples. The immune landscape in the tumor microenvironment (TME) was assessed using an integrated RNAscope and 27-marker MultiOmyx immunofluorescence panel.

[2] = system: IFNI pathway; assay: IFNI pathway activation: IFNI gene signature in peripheral blood and plasma CXCL-10 (IP-10); type: in vivo, human
Protocol: as §1, with “IHC assays for SUMO–subasumstat adduct and SUMO2/3 inhibition in skin biopsies and tumors were performed using MIL-113 and M114-3 antibodies.” left out, “Type I IFN gene signature was computed using geometric mean of the following genes: CCL2, CXCL10, DDX58, IRF7, ISG15, STAT1, and STAT2.” left out, “For assessment of NK- and T-cell activation, cells were suspended in buffer and incubated with the following monoclonal antibodies: APC-H7 mouse anti–human CD45 (BD Biosciences, cat. #560274), APC mouse anti–human CD69 (BD Biosciences, cat. #555533), BV421 mouse anti–human CD56 (BD Biosciences, cat. #562751), mouse anti–human CD16 PerCP-Cy5.5 (BD Biosciences, cat. #338440), BV510 mouse anti–human CD4 (BD Biosciences, cat. #563094), BV605 mouse anti–human CD8 (BD Biosciences, cat. #564116), and Alexa Fluor 700 anti–mouse CD3 antibody (BioLegend, cat. #100215), prior to assessment by flow cytometry using the BD Scientific FACSCanto flow cytometer (RRID: SCR_018055).” left out

[3] = system: tumor microenvironment (TME); assay: Tumor microenvironment in paired tumor biopsies (multiplex immunofluorescence, PD-L1 22C3 IHC CPS); type: in vivo, human
Protocol: as §1

[4] = system: MSS colorectal cancer and non-squamous NSCLC; set-up: method as in ref 18 = [18]; 18. Goel S , Ulahannan SV , Olszanski AJ , LoRusso P , Sanborn RE , Sharma S , . A phase 1b, multicenter, dose-escalation study of subasumstat (TAK-981) in combination with pembrolizumab in patients; details: in combination with pembrolizumab, cited from earlier work
[5] = cervical cancer and melanoma biopsies

Cc1sc(C(=O)c2cncnc2N[C@@H]2C[C@H](COS(N)(=O)=O)[C@@H](O)C2)cc1[C@@H]1NCCc2ccc(Cl)cc21 [subasumstat]
Target engagement in tumor samples ([1]; all evaluated tumor samples, 8 patients 90 mg twice weekly (C2D8), 1 melanoma patient 25 mg twice weekly (C1D8)): robust target engagement
Dose level from which SUMO–subasumstat adduct formation was detected ([1]; peripheral blood lymphocytes, C1D1 and C1D8, phase I): ≥ 10 mg
Time to detection of SUMO–subasumstat adduct after end of infusion ([1]; peripheral blood lymphocytes, doses ≥10 mg): ≤ 1 h
Persistence of target engagement ([1]; peripheral blood lymphocytes, twice weekly and once weekly schedules): at least 8 hours
Dose from which adduct formation was observed in skin biopsies ([1]; skin biopsies 2 hours after the C1D8 dose): ≥ 10 mg
Dose from which IFNI gene signature and plasma CXCL-10 (IP-10) were upregulated ([2]; both dosing schedules, phase I, dose-dependent): ≥ 40 mg
Recovery of IFNI gene signature and IP-10 ([2]; both markers): returned to baseline levels before dose on C1D8
Time to increase of IP-10 plasma concentration after end of infusion ([2]; plasma): ≤ 24 h
T-cell infiltration in tumor ([3]; CPI-naïve cervical cancer and CPI-exposed melanoma and NSCLC samples): significant CD8^+ and CD4^+ T-cell infiltration
T-cell density in tumor ([3]; biopsies from three patients with MSS colorectal cancer): did not exhibit an increase in T-cell density
Activated CD11C+HLA-DR+ myeloid dendritic cells [3, 5]: increase in density
HLA class I expression on tumor cells [3, 5]: marked increase
T-cell activation (CD69 on CD4+ and CD8+ T cells) in tumor [3, 5]: significant increase in T-cell activation
PD-L1 CPS ([3]; paired tumor samples, C2D8): increased in most paired tumor samples
Regulatory T cells in tumor ([3]; same biopsies): no significant changes
Antitumor activity ([4]; MSS colorectal cancer dose-expansion cohort): no activity was observed
Antitumor activity ([4]; relapsed/refractory MSS colorectal cancer and CPI-exposed non-squamous NSCLC, dose-escalation cohort): preliminary antitumor activity
